Test results reported in the NIST ThermoML archive (doi:10.1021/je3002078).
Numbers after ± are expanded uncertainties.

Details: Liquid; for mass density: 101.33 kPa, Vibrating tube method; for vapor or sublimation pressure: Ebulliometric method (Recirculating still)

| SMILES | mass density (303.15 K) | mass density (308.15 K) | vapor or sublimation pressure (489.79 K) | vapor or sublimation pressure (399.89 K) | vapor or sublimation pressure (474.01 K) | vapor or sublimation pressure (442.28 K) |
| --- | --- | --- | --- | --- | --- | --- |
| OCCc1ccccc1 [2-phenylethanol] | 1012.65 ± 0.51 kg/m3 | 1008.68 ± 0.51 kg/m3 | 95.3 ± 7.1 kPa |  |  |  |
| OCCCl [1-chloro-2-hydroxyethane] | 1192.48 ± 0.53 kg/m3 | 1186.44 ± 0.53 kg/m3 |  | 95.3 ± 7.1 kPa |  |  |
| CN1CCCC1=O [N-methylpyrrolidone] | 1023.45 ± 0.51 kg/m3 | 1013.34 ± 0.51 kg/m3 |  |  | 95.3 ± 7.1 kPa |  |
| NCCO [2-aminoethan-1-ol] | 1008.12 ± 0.51 kg/m3 | 1005.08 ± 0.51 kg/m3 |  |  |  | 95.3 ± 7.1 kPa |
